In US11981686B2, “Urea compound having substituent” (DAIICHI SANKYO COMPANY, LIMITED, priority 2019, dated 2024):

These compounds were tested against SIRT6 enzyme (Homo sapiens, UniProt Q8N6T7) (assay: Measurement of deacetylation activity (SIRT6, AlphaLISA, H3K9(Ac) peptide)). Details: SIRT6 25 ng/mL, H3K9(Ac) biotin peptide 2 nM, NAD 10 μM, room temperature 30 minutes, duplicate.
Type: biochemical
Outline: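 Activation read as EC150, the concentration giving 150% activity relative to enzyme/no-enzyme DMSO controls, via variable-slope fit. Deacetylation of 2 nM biotinylated H3K9(Ac) peptide with 10 μM NAD+ by 25 ng/mL SIRT6 ran 30 min at room temperature, pH 8.0, then AlphaLISA detection of unmodified H3K9.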

Chain of SIRT6 enzyme (Q8N6T7 whole entry, species assumed): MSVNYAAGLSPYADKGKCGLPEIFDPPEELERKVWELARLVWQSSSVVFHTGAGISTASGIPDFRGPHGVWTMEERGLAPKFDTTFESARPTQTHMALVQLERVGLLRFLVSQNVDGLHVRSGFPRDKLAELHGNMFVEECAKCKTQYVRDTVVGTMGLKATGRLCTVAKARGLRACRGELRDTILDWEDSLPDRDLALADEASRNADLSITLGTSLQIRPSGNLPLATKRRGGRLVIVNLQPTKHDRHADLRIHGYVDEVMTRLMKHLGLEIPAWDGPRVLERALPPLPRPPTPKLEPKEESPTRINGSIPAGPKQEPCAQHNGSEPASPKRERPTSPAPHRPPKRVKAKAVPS

| SMILES | EC150 (the concentration of the compound showing a relative enzyme activity of 150%) [μm] |
| --- | --- |
| C[C@H](CO)NC(=O)Nc1nc2c(s1)C1COCC(C2)N1c1nc(-c2cccc(C(F)F)c2)no1 (stereo partly drawn) [Example 124, N-(10-{3-[3-(difluoromethyl)phenyl]-1,2,4-oxadiazol-5-yl}-4,7,8,9-tetrahydro-5H-4,8-epiminooxocino[5,4-d][1,3]thiazol-2-yl)-N′-[(2R)-1-hydroxypropan-2-yl]urea] | 0.39 |
| CNC(=O)Nc1nc2c(s1)[C@H]1CN(C(=O)C(C)C)C[C@@H](C2)N1c1nc(-c2ccc(F)cc2)no1 [Example 125, N-[(4R,8R)-10-[3-(4-fluorophenyl)-1,2,4-oxadiazol-5-yl]-6-(2-methylpropanoyl)-4,5,6,7,8,9-hexahydro-4,8-epimino[1,3]thiazolo[5,4-d]azocin-2-yl]-N′-methylurea] | 2.4 |
| CNC(=O)Nc1nc2c(s1)C1CN(C(C)=O)CC(C2)N1c1ncc(-c2cccc(OC)n2)o1 (centres unmarked) [Example 126, N-{6-acetyl-10-[5-(6-methoxypyridin-2-yl)-1,3-oxazol-2-yl]-4,5,6,7,8,9-hexahydro-4,8-epimino[1,3]thiazolo[5,4-d]azocin-2-yl}-N′-methylurea] | 1 |
| CNC(=O)Nc1nc2c(s1)[C@H]1CN(CCO)C[C@@H](C2)N1c1nc(-c2ccc(F)cc2)no1 [Example 127, N-[(4R,8R)-10-[3-(4-fluorophenyl)-1,2,4-oxadiazol-5-yl]-6-(2-hydroxyethyl)-4,5,6,7,8,9-hexahydro-4,8-epimino[1,3]thiazolo[5,4-d]azocin-2-yl]-N′-methylurea] | 2.1 |
| CNC(=O)Nc1nc2c(s1)C1CN(C(C)=O)CC(C2)N1c1ncc(-c2cccc(OC(F)F)n2)o1 (centres unmarked) [Example 128, N-(6-acetyl-10-{5-[6-(difluoromethoxy)pyridin-2-yl]-1,3-oxazol-2-yl}-4,5,6,7,8,9-hexahydro-4,8-epimino[1,3]thiazolo[5,4-d]azocin-2-yl)-N′-methylurea] | 0.43 |
| CNC(=O)Nc1nc2c(s1)C1CN(C(C)=O)CC(C2)N1c1ncc(-c2cccc(OC)n2)o1 (centres unmarked) [Example 129, N-{6-acetyl-10-[5-(6-methoxypyridin-2-yl)-1,3-oxazol-2-yl]-4,5,6,7,8,9-hexahydro-4,8-epimino[1,3]thiazolo[5,4-d]azocin-2-yl}-N′-methylurea] | 0.38 |
| CNC(=O)Nc1nc2c(s1)C1CN(C(C)=O)CC(C2)N1c1nc2cc(F)ccc2o1 (centres unmarked) [Example 130, N-[6-acetyl-10-(5-fluoro-1,3-benzoxazol-2-yl)-4,5,6,7,8,9-hexahydro-4,8-epimino[1,3]thiazolo[5,4-d]azocin-2-yl]-N′-methylurea] | 3.7 |
| CNC(=O)Nc1nc2c(s1)C1CN(C(=O)OC)CC(C2)N1c1nc(C2CCC(F)(F)C2)no1 (centres unmarked) [Example 131, Methyl 10-[3-(3,3-difluorocyclopentyl)-1,2,4-oxadiazol-5-yl]-2-[(methylcarbamoyl)amino]-4,7,8,9-tetrahydro-4,8-epimino[1,3]thiazolo[5,4-d]azocin-6(5H)-carboxylate] | 1.4 |
| CNC(=O)Nc1nc2c(s1)C1CN(C(=O)OC)CC(C2)N1c1nc(C2CCC(F)(F)CC2)no1 (centres unmarked) [Example 132, Methyl 10-[3-(4,4-difluorocyclohexyl)-1,2,4-oxadiazol-5-yl]-2-[(methylcarbamoyl)amino]-4,7,8,9-tetrahydro-4,8-epimino[1,3]thiazolo[5,4-d]azocine-6(5H)-carboxylate] | 0.39 |
| CNC(=O)Nc1nc2c(s1)C1CN(C(=O)OC)CC(C2)N1c1nc(C23CCC(F)(CC2)C3)no1 (centres unmarked) [Example 133, Methyl 10-[3-(4-fluorobicyclo[2.2.1]heptan-1-yl)-1,2,4-oxadiazol-5-yl]-2-[(methylcarbamoyl)amino]-4,7,8,9-tetrahydro-4,8-epimino[1,3]thiazolo[5,4-d]azocin-6(5H)-carboxylate] | 1.4 |
| CCOC(=O)N1CC2Cc3nc(NC(=O)NC)sc3C(C1)N2c1nc(C2(C(F)(F)F)CC2)no1 (centres unmarked) [Example 134, Ethyl 2-[(methylcarbamoyl)amino]-10-{3-[1-(trifluoromethyl)cyclopropyl]-1,2,4-oxadiazol-5-yl}-4,7,8,9-tetrahydro-4,8-epimino[1,3]thiazolo[5,4-d]azocine-6(5H)-carboxylate] | 3.5 |
| CNC(=O)Nc1nc2c(s1)C1CN(C(=O)OC)CC(C2)N1c1nc(C23CC(C(F)F)(C2)C3)no1 (centres unmarked) [Example 135, Methyl 10-{3-[3-(difluoromethyl)bicyclo[1.1.1]pentan-1-yl]-1,2,4-oxadiazol-5-yl}-2-[(methylcarbamoyl)amino]-4,7,8,9-tetrahydro-4,8-epimino[1,3]thiazolo[5,4-d]azocine-6(5H)-carboxylate] | 2.1 |
| CCNC(=O)Nc1nc2c(s1)C1CN(C(C)=O)CC(C2)N1c1nc(-c2ccc(F)cc2)no1 (centres unmarked) [Example 136, N-{6-acetyl-10-[3-(4-fluorophenyl)-1,2,4-oxadiazol-5-yl]-4,5,6,7,8,9-hexahydro-4,8-epimino[1,3]thiazolo[5,4-d]azocin-2-yl}-N′-ethylurea] | 0.34 |
| CC(=O)N1CC2Cc3nc(NC(=O)NC(C)C)sc3C(C1)N2c1nc(-c2ccc(F)cc2)no1 (centres unmarked) [Example 137, N-{6-acetyl-10-[3-(4-fluorophenyl)-1,2,4-oxadiazol-5-yl]-4,5,6,7,8,9-hexahydro-4,8-epimino[1,3]thiazolo[5,4-d]azocin-2-yl}-N′-propan-2-ylurea] | 0.36 |
| CNC(=O)Nc1nc2c(s1)C1CN(C(C)=O)CC(C2)N1c1nc(-c2cccc(F)c2)no1 (centres unmarked) [Example 138, N-{6-acetyl-10-[3-(3-fluorophenyl)-1,2,4-oxadiazol-5-yl]-4,5,6,7,8,9-hexahydro-4,8-epimino[1,3]thiazolo[5,4-d]azocin-2-yl}-N′-methylurea] | 0.46 |
| CNC(=O)Nc1nc2c(s1)C1CN(C(C)=O)CC(C2)N1c1ncc(-c2cccc(Cl)c2)o1 (centres unmarked) [Example 139, N-{6-acetyl-10-[5-(3-chlorophenyl)-1,3-oxazol-2-yl]-4,5,6,7,8,9-hexahydro-4,8-epimino[1,3]thiazolo[5,4-d]azocin-2-yl}-N′-methylurea] | 0.36 |
| CC(=O)N1CC2Cc3nc(NC(=O)N[C@@H]4CCOC4)sc3C(C1)N2c1nc(-c2ccc(F)cc2)no1 (stereo partly drawn) [Example 140, N-{6-acetyl-10-[3-(4-fluorophenyl)-1,2,4-oxadiazol-5-yl]-4,5,6,7,8,9-hexahydro-4,8-epimino[1,3]thiazolo[5,4-d]azocin-2-yl}-N′-[(3R)-oxolan-3-yl]urea] | 0.16 |
